In ChEMBL document CHEMBL1201862, “PubChem BioAssay data set” (2004):
Active and inactive are the calls of the source.

What was measured:
BJ [1] = assay: BJ-TERT fibroblast viability loss – cell-based, RAS-independent, luminescence, dose response (AID 1933); format: functional; settings: Homo sapiens
BJ [2] = assay: cells; format: functional, cell-based; settings: Homo sapiens
BJ [3] = assay: BJ-TERT-LT-ST fibroblast viability loss – cell-based, RAS-independent, luminescence, dose response (AID 1935); format: functional; settings: Homo sapiens;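 further: BJ fibroblasts immortalized with TERT plus LT and ST oncogenes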
[4] = DRD fibroblast viability loss – cell-based, non-viral oncogenic, luminescence, dose response (AID 1934); format: functional; settings: Homo sapiens
[5] = target: T1, Short transient receptor potential channel 4 (Mus musculus, UniProt Q9QUQ5); assay: block of DAMGO-driven TRPC4 calcium entry – cell-based, HEK293 TRPC4/mu-opioid, Fluo-4 calcium, dose response (AID 434942); format: functional;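 further: potency of inhibitors blocking the TRPC4 calcium response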
T1 sequence (Q9QUQ5 whole entry): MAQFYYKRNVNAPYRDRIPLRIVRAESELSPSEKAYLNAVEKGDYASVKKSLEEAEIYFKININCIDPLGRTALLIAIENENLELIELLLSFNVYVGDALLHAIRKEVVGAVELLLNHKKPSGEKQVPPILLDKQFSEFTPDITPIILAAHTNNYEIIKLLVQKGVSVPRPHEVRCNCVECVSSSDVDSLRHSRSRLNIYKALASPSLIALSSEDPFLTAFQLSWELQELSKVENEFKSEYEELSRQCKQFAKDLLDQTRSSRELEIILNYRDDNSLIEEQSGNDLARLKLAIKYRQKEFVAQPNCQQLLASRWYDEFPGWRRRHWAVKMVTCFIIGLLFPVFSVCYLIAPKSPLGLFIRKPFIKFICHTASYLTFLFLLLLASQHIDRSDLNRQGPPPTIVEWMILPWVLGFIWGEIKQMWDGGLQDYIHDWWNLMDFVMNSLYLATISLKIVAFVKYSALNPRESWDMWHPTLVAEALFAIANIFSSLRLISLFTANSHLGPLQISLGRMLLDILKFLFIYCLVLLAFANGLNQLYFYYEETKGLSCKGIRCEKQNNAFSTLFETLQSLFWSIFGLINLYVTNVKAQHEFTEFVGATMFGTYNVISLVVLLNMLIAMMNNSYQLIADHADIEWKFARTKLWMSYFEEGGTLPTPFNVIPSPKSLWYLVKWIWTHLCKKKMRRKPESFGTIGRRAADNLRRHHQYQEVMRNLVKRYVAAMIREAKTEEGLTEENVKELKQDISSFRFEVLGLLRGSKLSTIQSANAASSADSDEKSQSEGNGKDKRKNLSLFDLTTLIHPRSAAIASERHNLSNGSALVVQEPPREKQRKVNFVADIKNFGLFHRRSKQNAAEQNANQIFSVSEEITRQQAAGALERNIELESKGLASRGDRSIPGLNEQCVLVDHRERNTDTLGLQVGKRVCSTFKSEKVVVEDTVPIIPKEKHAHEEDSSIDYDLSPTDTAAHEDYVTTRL

BJ [6] = assay: growth inhibition of engineered Ras-driven BJ cells – cell-based, alamar blue fluorescence, cherrypicked samples, dose response (AID 2631); format: functional; settings: Homo sapiens;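 further: confirmatory dose-response assay in RAS-dependent BJ fibroblasts engineered with TERT, LT and ST, with cytotoxicity read by fluorescence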
Hexokinase-1 = target: T2, Hexokinase-1 (Homo sapiens, UniProt P19367); assay: SAR analysis of small molecule inhibitors of hexokinase domain containing I (HKDC1) in the hexokinase 1 selectivity assay. [Related pubchem assays (depositor defined):AID493160, AID493190]; format: functional
T2 sequence (P19367 whole entry): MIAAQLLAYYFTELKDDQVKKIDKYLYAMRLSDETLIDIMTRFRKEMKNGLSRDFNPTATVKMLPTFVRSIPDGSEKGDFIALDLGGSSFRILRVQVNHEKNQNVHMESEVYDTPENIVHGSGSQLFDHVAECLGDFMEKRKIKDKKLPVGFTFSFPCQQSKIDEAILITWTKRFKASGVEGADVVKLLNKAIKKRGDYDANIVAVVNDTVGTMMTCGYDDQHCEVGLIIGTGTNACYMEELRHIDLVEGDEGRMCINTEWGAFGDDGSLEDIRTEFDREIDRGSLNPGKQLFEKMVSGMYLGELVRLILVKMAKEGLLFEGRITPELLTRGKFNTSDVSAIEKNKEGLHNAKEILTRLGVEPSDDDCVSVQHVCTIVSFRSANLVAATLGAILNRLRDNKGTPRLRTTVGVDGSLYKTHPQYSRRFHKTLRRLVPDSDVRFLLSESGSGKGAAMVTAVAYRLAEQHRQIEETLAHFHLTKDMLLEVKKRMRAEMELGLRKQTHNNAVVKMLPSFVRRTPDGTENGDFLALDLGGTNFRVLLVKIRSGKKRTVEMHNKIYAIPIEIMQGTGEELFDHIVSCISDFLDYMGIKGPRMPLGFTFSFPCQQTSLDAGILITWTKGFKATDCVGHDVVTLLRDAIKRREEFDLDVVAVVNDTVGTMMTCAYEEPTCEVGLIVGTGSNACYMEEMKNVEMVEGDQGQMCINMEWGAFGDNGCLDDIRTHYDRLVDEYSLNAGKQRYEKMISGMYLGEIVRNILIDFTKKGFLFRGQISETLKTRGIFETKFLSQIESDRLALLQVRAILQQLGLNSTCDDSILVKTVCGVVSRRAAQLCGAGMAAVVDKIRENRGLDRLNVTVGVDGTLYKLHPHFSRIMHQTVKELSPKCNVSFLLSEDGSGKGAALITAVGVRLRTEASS

Hexokinase HKDC1 = target: T3, Hexokinase HKDC1 (Homo sapiens, UniProt Q2TB90); assay: SAR analysis of small molecule inhibitors of hexokinase domain containing I (HKDC1). [Related pubchem assays (depositor defined):AID493160, AID493190]; format: functional
T3 sequence (Q2TB90 whole entry): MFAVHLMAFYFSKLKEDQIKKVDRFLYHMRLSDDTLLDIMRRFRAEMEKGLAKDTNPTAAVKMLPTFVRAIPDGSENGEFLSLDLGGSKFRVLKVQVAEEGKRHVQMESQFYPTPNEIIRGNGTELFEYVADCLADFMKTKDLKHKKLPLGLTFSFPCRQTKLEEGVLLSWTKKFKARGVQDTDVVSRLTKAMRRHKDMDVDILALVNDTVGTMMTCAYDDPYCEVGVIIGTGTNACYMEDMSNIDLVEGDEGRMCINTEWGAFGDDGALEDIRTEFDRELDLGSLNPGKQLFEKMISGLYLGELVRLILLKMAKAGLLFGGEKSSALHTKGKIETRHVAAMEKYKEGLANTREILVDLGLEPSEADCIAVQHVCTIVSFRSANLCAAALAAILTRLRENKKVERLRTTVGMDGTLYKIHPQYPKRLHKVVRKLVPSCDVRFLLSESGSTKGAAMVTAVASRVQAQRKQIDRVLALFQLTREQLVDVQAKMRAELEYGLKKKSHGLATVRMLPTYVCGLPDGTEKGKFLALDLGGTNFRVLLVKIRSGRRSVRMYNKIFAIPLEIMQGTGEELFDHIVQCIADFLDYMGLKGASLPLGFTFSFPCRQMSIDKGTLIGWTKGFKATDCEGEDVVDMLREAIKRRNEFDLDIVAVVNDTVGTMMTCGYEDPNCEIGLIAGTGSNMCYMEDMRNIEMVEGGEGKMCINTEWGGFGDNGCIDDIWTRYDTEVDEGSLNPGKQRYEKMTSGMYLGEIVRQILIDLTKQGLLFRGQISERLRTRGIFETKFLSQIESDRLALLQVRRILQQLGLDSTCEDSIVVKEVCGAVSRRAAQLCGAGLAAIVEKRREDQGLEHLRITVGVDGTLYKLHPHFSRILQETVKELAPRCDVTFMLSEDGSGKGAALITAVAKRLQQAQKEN

[7] = target: T4, Acyl-homoserine lactone acylase PvdQ (Pseudomonas aeruginosa (strain LESB58), UniProt Q9I194); assay: PvdQ acylase enzyme activity blockers – biochemical, fluorescence, plate reader and imaging, cherry-picks, dose response (AID 493231)
T4 sequence (Q9I194 whole entry): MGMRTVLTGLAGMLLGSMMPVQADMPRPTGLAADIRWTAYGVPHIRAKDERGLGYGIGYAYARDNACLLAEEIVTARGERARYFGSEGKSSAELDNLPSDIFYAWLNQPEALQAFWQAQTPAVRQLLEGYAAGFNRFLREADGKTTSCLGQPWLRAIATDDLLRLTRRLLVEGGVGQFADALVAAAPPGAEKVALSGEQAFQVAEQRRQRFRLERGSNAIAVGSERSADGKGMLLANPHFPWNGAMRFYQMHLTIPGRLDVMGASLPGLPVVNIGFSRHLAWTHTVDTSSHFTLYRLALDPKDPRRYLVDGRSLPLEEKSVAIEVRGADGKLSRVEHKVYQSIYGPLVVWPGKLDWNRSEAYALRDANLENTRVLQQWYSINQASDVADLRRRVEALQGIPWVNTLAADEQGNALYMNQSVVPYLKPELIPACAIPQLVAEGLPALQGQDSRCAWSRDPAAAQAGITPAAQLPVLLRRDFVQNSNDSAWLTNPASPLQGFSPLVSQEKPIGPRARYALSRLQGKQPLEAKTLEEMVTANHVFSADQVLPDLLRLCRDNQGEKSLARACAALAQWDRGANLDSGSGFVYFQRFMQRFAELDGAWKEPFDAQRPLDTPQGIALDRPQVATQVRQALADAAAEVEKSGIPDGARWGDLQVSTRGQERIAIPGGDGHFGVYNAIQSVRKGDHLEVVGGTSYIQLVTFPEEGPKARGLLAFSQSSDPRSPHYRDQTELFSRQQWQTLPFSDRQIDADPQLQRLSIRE

[8] = target: T5, Endoribonuclease toxin MazF (Escherichia coli K-12, UniProt P0AE70); assay: activation of MazEF endoribonuclease cleavage – biochemical, fluorescence, single-stranded RNA substrate, uHTS hits, dose response (AID 588481); format: functional
T5 sequence (P0AE70 whole entry): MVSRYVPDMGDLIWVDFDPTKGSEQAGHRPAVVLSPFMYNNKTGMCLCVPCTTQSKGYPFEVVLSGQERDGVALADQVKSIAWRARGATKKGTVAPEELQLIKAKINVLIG

HeLa = assay: toxicity to human HeLa cells – cell-based, 48 h, plate reader, cherry-picks, cytotoxicity control, dose response (AID 504942); format: functional
[9] = target: T5, Endoribonuclease toxin MazF; assay: substrate-only fluorescence increase artefacts – biochemical, single-stranded RNase substrate, counter-screen for MazEF activator project, dose response (AID 588502); format: functional
Protein skinhead-1 = target: T6, Protein skinhead-1 (Caenorhabditis elegans, UniProt P34707); format: functional
T6 sequence (P34707 whole entry): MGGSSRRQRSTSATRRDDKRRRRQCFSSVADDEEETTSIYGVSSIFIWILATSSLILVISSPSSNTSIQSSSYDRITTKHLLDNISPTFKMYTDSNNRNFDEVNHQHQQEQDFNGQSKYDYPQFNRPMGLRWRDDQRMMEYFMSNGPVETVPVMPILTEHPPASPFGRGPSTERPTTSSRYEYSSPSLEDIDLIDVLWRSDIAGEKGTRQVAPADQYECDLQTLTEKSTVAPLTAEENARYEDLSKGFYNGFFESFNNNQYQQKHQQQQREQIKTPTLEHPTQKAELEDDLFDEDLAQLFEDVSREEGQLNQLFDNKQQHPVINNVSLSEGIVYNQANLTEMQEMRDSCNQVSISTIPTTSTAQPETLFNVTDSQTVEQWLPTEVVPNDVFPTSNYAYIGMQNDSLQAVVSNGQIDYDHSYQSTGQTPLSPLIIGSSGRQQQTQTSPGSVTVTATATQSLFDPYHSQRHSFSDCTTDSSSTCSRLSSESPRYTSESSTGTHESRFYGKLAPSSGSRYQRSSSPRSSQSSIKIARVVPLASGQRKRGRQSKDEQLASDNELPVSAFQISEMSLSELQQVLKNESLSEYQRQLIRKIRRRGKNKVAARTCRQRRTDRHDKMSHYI

[10] = Luminescence-based cell-based high throughput dose response assay to identify activators of the DAF-12 from the parasite S. stercoralis (ssDAF-12).; format: functional
[11] = target: T7, Oxysterols receptor LXR-beta (Homo sapiens, UniProt P55055); assay: LXR agonists, Gal4 luciferase reporter, dose response, counter-screen for ssDAF-12 agonist project, cell-based, luminescence, HEK293, S. stercoralis campaign (AID 720737); format: functional; settings: read-out: IC50 (the source's name)
T7 sequence (P55055 whole entry): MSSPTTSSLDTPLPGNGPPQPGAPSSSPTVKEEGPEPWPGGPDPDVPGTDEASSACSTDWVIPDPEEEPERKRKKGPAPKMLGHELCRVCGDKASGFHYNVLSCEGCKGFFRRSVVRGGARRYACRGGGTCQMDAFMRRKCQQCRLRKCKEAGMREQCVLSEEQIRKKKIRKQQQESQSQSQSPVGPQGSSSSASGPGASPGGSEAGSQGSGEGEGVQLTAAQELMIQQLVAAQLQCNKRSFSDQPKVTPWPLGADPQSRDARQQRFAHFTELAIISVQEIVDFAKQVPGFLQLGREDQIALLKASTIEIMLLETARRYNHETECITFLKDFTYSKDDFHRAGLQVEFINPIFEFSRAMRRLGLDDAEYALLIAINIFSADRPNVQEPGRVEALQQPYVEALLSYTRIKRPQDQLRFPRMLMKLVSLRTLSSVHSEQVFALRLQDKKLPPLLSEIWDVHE

HEK293 [12] = assay: HEK293T cell viability loss, resazurin readout – resazurin fluorescence, cytotoxicity control for NF-kB activator project, SAR follow-up (AID 493251); format: functional, cell-based; settings: Homo sapiens
Jurkat = assay: SAR Analysis of small molecule inhibitors of T-cell specific antigen receptor-induced NF-kB activation in a Jurkat cell line using a luminescence assay - Set 2. [Related pubchem assays (depositor defined):AID435003, AID435012, AID465]; format: functional, cell-based; settings: Homo sapiens
HEK293 [13] = assay: SAR Analysis of small molecule inhibitors of T-cell specific antigen receptor-induced NF-kB activation in a HEK-293T cell line using a luminescence assay - Set 2. [Related pubchem assays (depositor defined):AID435003, AID435012, AID489026]; format: functional, cell-based; settings: Homo sapiens

Compound: COC(=O)c1cccc(Nc2c3c(nc4ccccc24)CCC3)c1
- EC50 (BJ [1]): 28.4 µM (active)
- EC50 (BJ [2]): 18.2 µM (active)
- EC50 (BJ [3]): > 150 µM (inconclusive)
- EC50 [4]: 19.2 µM (active)
- EC50 [5]: 2.11 µM (active)
- EC50 (BJ [6]): > 133 µM (inactive)

Compound: Cc1cccc(/C=C/c2nc3ccccc3c(=O)n2Cc2ccccc2)c1
- IC50 (Hexokinase-1): > 80 µM (inactive)
- IC50 (Hexokinase HKDC1): > 80 µM (inactive)

Compound: N#C/C(=C/c1ccco1)c1nc2ccccc2s1
- AC50 [7]: 12.5 µM (active)
- EC50 [8]: 23.7 µM (inactive)
- AC50 (HeLa): 53.7 µM (active)
- EC50 [9]: 54.8 µM (inactive)
- IC50 (Protein skinhead-1): > 100 µM (inactive)
- IC50 [10]: > 67.5 µM (inactive)
- EC50 [11]: > 67.5 µM (inactive)

Compound: Cc1ccc(C)c(NC(=O)c2ccc([N+](=O)[O-])o2)c1
- IC50 (HEK293 [12]): > 80 µM (inactive)
- IC50 (Jurkat): 14.1 µM (active)
- IC50 (HEK293 [13]): 46.6 µM (inactive)
